Assay: Ratio of AUC in mouse epithelial lining fluid to AUC in mouse serum
Type: ADME
Settings: read-out: Ratio AUC

## CC(C)(O/N=C(\C(=O)N[C@@H]1C(=O)N2C(C(=O)[O-])=C(C[n+]3ccccc3)CS[C@H]12)c1csc(N)n1)C(=O)O [CEFTAZIDIME]
  Kp: 0.201

Reference: ChEMBL document CHEMBL3868634, “Animal models in the pharmacokinetic/pharmacodynamic evaluation of antimicrobial agents” (Bioorg Med Chem, 2016)
